Experimental data taken from article PMC6156125, “Chemistry and Hypoglycemic Activity of GPR119 Agonist ZB-16” (Frontiers in Endocrinology, 2018).
Values after ≈ are worked out from the molar mass of the structure shown.

What was measured:
human GPR119 (hGPR119) = target: T1, human GPR119 (hGPR119) (Homo sapiens, UniProt Q8TDV5); assay: Specific (agonistic) activity in vitro, cAMP increase (Lance Ultra cAMP kit) in CHO-K1 cells expressing hGPR119; type: cell-based; conditions: CHO-K1 hGPR119, cAMP
T1 construct: expressed in transfected cells; host or cells: CHO-K1 (Chinese hamster ovary)
T1 sequence (Q8TDV5 1-335): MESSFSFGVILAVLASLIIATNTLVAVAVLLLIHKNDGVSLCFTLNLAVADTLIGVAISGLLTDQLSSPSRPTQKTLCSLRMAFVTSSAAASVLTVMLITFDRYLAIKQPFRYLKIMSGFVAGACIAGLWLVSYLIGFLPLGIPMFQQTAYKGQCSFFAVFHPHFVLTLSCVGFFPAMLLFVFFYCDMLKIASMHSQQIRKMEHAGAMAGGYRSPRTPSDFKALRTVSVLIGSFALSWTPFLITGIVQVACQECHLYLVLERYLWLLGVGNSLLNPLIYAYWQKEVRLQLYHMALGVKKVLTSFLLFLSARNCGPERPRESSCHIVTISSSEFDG
Protocol: Specific activity was evaluated using an immortalized Chinese hamster ovary cell line CHO-K1 steadily expressed human GPR119 (hGPR119). The cells (10^7 ml^−1) were cultured in Dulbecco's modified Eagle medium (DMEM) modified with 10% fetal bovine serum (FBS), revolved continuously at 50 rpm at 37°C in 8% CO2 for 3–4 days. Lance Ultra cAMP kit (Perkin Elmer, Waltham, MA, USA) was chosen as the experimental platform ([13]). The experiments were performed in accordance to the manufacturer's instructions. The agonistic activity of the test compounds was estimated by the increase in intracellular cAMP concentration, assuming the hGPR119 activation is followed by the activation of cellular adenylate cyclase, which increases intracellular cAMP levels ([4], [14]). Known agonists of hGPR119 receptors were used as positive controls to determine the maximal possible effect (MPE). The activity of test compounds was expressed in terms of median effective concentration (EC50).

physchem = conditions: kinetic from dmso stock
[1] = Biotransformation in vitro, microsomal stability (mouse); type: in vitro ADME
Protocol: (§1) The metabolism of the compounds was studied in commercially available microsomal fractions derived from human and rat hepatocytes. Test compounds (0.5 μM) were incubated with microsomal fractions in the presence of NADPH during 30 min in a shaker at 37°C. Reactions were stopped at 0, 5, 10, 15, and 30 min by adding acetonitrile. After proteins precipitation, the remaining amount of the test compound in the supernatant was detected with high performance liquid chromatography tandem-mass spectrometry (HPLC-MS/MS) method using Agilent 1260 liquid chromatograph (Agilent Technologies, Santa Clara, CA, USA) and a QTRAP6500 triple quadrupole mass spectrometer with a TurboIonSpray electro-spraying module (ABSciex, Foster City, CA, USA) ([15]). Incubation was performed twice, with at least 2 measurements for each replicate (n ≥ 3). The half-life (T1/2), the clearance in vitro (CLint) and the remaining amount of substance (% of initial quantity) were calculated.

[2] = Biotransformation in vitro, microsomal stability (rat); type: in vitro ADME; conditions: for ER / CLh: Rat microsomal fraction; for CLh: in mL/min/kg (unit assumed); for microsomal CLint at 0.5 μM / half-life at 0.5 μM: liver microsomal fraction; for half-life at 0.5 μM: NADPH, read-out: t1/2, min
Protocol: as §1

[3] = Biotransformation in vitro, microsomal stability (human); type: in vitro ADME; conditions: for ER / CLh: Human microsomal fraction; for CLh: in mL/min/kg (unit assumed); for microsomal CLint at 0.5 μM / half-life at 0.5 μM: liver microsomal fraction; for half-life at 0.5 μM: NADPH, read-out: t1/2, min
Protocol: as §1

hERG potassium channels = target: T2, hERG potassium channels (Homo sapiens, UniProt Q12809); assay: Cardiac toxicity, Predictor hERG fluorescence polarization binding
T2 construct: purchased Invitrogen Corporation, Carlsbad, CA, USA
T2 sequence (Q12809 whole entry): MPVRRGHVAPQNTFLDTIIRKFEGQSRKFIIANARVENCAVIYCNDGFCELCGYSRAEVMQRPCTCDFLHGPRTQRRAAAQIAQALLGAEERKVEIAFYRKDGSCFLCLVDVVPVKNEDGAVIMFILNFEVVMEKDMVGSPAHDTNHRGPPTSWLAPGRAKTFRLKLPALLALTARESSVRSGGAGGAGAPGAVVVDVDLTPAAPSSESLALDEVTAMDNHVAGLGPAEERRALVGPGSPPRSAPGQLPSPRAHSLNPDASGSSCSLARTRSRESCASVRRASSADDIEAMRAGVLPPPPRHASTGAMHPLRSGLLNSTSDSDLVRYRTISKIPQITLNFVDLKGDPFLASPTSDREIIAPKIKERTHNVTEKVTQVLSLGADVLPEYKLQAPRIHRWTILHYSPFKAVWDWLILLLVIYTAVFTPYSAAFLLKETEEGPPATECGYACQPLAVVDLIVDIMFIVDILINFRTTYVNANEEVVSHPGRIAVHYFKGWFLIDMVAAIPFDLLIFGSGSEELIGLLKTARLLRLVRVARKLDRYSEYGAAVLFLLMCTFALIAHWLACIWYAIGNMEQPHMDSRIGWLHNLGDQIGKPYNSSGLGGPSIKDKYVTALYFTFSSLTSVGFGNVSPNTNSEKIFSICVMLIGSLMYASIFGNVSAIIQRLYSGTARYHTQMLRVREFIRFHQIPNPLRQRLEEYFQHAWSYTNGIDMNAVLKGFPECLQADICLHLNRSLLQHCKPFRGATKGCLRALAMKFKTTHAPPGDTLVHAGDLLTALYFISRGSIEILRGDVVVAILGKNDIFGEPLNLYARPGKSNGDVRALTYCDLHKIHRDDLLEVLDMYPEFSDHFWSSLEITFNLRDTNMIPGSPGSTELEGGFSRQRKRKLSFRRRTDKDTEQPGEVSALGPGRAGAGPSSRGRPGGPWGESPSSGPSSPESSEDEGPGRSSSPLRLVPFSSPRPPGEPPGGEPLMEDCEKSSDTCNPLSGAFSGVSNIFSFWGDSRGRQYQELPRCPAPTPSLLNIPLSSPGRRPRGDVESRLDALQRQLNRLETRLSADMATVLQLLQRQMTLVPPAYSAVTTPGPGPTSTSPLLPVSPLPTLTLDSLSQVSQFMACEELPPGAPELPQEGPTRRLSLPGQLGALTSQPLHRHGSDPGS
Protocol: Cardiac toxicity was evaluated by estimating the influence of each substance on hERG potassium channels using the in vitro test system Invitrogen® PredictorTM hERG (Invitrogen Corporation, Carlsbad, CA, USA), containing Predictor hERG membrane preparations, fluorescent tracer stock solution and an assay buffer solution. Experimental procedures were conducted in accordance with the PredictorTM hERG test system's manufacturer instructions. Assays were performed in 384-well microplates. Each well contained 5 μL aliquot of each concentration of test compound, 10 μL of (2X) membrane preparation and 5 μL of working tracer solution. The cumulative reaction volume was 20 μl with 1% of DMSO ([19]). All procedures were performed at 4 replicates for each concentration. The plate was allowed to incubate at room temperature for at least 1 h prior to fluorescence polarization measurements performed with a microplate reader Infinite M1000 PRO (Tecan).

CYP2C19 = target: T3, CYP2C19 (Homo sapiens, UniProt P33261); assay: CYP inhibition, Vivid CYP450 Screening Kit; type: in vitro ADME; conditions: 0.0046 to 10 μM tested
T3 construct: purchased Invitrogen Corporation, Carlsbad, CA, USA
T3 sequence (P33261 whole entry): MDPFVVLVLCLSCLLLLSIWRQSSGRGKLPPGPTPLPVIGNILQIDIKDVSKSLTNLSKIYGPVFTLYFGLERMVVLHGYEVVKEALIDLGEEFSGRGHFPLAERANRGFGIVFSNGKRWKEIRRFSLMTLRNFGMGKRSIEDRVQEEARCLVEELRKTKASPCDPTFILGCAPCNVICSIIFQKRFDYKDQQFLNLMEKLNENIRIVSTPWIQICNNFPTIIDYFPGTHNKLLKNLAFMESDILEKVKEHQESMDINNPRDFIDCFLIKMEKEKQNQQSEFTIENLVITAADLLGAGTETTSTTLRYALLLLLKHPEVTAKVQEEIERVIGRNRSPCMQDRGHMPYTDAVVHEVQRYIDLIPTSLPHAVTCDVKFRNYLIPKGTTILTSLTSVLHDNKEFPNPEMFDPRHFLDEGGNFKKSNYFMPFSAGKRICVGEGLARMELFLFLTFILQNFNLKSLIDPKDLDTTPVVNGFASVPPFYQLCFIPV
Protocol: (§2) Briefly, the reaction was initiated by adding NADP^+ and a substrate converted to fluorescent derivates by specific CYP isozyme. The reaction was terminated by adding 1M Tris. The fluorescence of the reaction product, which was proportional to CYP isozyme activity, was measured. […] The minimal signal was defined as the signal obtained without enzyme incubation. The inhibitory action of test compounds on the CYP isozymes was expressed in terms of median inhibitory concentration (IC50).

CYP2C9 = target: T4, CYP2C9 (Homo sapiens, UniProt P11712); assay: CYP inhibition, Vivid CYP450 Screening Kit; type: in vitro ADME; conditions: 0.0046 to 10 μM tested
T4 construct: purchased Invitrogen Corporation, Carlsbad, CA, USA
T4 sequence (P11712 whole entry): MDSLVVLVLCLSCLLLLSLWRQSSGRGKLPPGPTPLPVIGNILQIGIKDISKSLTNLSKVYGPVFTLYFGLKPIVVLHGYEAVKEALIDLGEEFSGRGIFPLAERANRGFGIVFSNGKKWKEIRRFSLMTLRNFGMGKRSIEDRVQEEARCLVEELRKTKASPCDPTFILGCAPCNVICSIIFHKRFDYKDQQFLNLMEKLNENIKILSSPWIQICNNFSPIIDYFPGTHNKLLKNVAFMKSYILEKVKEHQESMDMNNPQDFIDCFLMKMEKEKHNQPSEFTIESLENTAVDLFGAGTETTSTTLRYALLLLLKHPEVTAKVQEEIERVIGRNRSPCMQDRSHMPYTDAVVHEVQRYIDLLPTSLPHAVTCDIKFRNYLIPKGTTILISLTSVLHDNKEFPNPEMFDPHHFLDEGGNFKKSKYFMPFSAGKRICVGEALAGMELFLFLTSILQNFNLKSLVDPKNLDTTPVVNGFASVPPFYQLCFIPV
Protocol: as §2

CYP3A4 = target: T5, CYP3A4 (Homo sapiens, UniProt P08684); assay: CYP inhibition, Vivid CYP450 Screening Kit; type: in vitro ADME; conditions: 0.0046 to 10 μM tested
T5 construct: purchased Invitrogen Corporation, Carlsbad, CA, USA
T5 sequence (P08684 whole entry): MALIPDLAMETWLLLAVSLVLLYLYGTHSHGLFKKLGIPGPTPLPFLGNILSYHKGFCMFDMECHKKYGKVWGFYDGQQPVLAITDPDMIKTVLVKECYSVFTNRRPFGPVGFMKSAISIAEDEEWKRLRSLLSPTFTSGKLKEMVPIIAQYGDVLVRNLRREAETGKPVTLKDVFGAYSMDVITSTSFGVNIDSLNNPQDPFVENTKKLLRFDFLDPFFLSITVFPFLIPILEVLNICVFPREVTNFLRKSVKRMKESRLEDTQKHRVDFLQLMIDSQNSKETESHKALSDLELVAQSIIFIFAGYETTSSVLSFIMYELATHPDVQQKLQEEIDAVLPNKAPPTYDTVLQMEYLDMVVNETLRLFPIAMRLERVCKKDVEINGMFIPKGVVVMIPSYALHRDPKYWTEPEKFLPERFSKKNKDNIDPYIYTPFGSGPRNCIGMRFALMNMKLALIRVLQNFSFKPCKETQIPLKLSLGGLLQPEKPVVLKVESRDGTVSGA
Protocol: as §2

CYP2D6 = target: T6, CYP2D6 (Homo sapiens, UniProt P10635); assay: CYP inhibition, Vivid CYP450 Screening Kit; type: in vitro ADME; conditions: 0.0046 to 10 μM tested
T6 construct: purchased Invitrogen Corporation, Carlsbad, CA, USA
T6 sequence (P10635 whole entry): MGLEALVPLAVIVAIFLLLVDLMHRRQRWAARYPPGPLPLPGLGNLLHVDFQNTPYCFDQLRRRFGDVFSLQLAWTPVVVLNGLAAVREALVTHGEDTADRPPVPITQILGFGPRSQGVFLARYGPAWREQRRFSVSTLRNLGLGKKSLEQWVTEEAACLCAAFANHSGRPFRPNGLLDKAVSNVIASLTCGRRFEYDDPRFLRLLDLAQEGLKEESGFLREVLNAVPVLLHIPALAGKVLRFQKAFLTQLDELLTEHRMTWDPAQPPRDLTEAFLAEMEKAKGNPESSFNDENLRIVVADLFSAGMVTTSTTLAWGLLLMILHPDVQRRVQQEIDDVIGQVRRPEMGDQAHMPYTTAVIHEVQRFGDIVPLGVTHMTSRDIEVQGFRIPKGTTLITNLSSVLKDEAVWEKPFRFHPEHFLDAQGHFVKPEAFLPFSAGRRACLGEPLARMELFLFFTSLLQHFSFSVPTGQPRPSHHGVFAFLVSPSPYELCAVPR
Protocol: as §2

CYP1A2 = target: T7, CYP1A2 (Homo sapiens, UniProt P05177); assay: CYP inhibition, Vivid CYP450 Screening Kit; type: in vitro ADME; conditions: 0.0046 to 10 μM tested
T7 construct: purchased Invitrogen Corporation, Carlsbad, CA, USA
T7 sequence (P05177 1-516): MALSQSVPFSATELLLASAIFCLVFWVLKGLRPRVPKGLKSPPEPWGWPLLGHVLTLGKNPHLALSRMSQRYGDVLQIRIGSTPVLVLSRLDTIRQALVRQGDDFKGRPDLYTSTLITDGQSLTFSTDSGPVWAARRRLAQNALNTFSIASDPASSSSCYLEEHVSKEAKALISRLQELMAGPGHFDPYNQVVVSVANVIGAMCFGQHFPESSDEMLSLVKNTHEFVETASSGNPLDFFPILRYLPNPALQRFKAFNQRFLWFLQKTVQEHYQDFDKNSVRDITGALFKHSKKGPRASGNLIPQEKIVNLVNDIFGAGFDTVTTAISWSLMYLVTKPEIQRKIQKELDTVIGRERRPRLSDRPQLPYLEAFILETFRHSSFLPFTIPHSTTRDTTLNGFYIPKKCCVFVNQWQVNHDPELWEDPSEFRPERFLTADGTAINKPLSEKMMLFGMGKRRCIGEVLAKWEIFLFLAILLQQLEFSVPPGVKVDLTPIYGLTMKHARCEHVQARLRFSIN
Protocol: as §2

[4] = system: rats with streptozotocin-nicotinamide (STZ-NA) induced T2D; assay: Hypoglycemic activity after continuous (28 days) oral administration in T2D rat model, OGTT; type: in vivo; conditions: daily oral ZB-16 1 mg/kg or sitagliptin 10 mg/kg for 28 days, STZ-NA T2D
Protocol: Procedures were performed in 40 female Wistar rats weighing 250–280 g. Streptozotocin-nicotinamide-induced rat model of T2D was used ([24], [25]). Briefly, streptozotocin (Sigma, St. Louis, MO, USA) was administered i.p. to overnight fasted rats (65 mg/kg in 100 mmol/l citrate buffer, Ph 4.5). Nicotinamide (Sigma, St. Louis, MO, USA) (230 mg/kg) dissolved in saline was administered i.p. 15 min before streptozotocin. STZ-NA T2D had been confirmed 72 h after in rats with blood glucose levels in a range 9–14 mmol/l measured in fasting (6 h) conditions. […] Following the continuous oral administration of sitagliptin (10 mg/kg), ZB-16 (1 mg/kg) or saline during 28 days STZ-NA T2D confirmation the fasting blood glucose levels were measured, and oral glucose tolerance test (OGTT) was performed. For OGTT rats received an oral dose of […] glucose dissolved in saline; blood glucose levels were monitored every 30 min for 2 h after glucose administration. Sitagliptin dose was chosen in accordance with published data ([26]).

[5] = Britton-Robinson universal buffer, pH 2, aqueous buffer
[6] = Britton-Robinson universal buffer, pH 4, aqueous buffer
[7] = Britton-Robinson universal buffer, pH 7, aqueous buffer

Compound	EC50 (human GPR119 (hGPR119))	solubility (physchem; [5])	solubility (physchem; [6])	solubility (physchem; [7])	ER [2]	CLh [2]	microsomal CLint at 0.5 μM [2]	half-life at 0.5 μM [2]	ER [3]	CLh [3]	microsomal CLint at 0.5 μM [3]	half-life at 0.5 μM [3]	further results
CC(C)OC(=O)N1CCC(COc2ccc(-c3ccc4c(c3)OCS4(=O)=O)cc2F)CC1 [ZB-17]	12.5 nM	< 3 µM	< 3 µM	< 3 µM	–	–	–	–	–	–	–	–	–
CC(C)(C)OC(=O)N1CCC(COc2ccc(-c3ccc4c(c3)OCS4(=O)=O)cc2F)CC1 [ZB-09]	–	< 3 µM	< 3 µM	< 3 µM	0.74	40.97	89.2 µL/min/mg	31.1 min	0.94	20.44	666 µL/min/mg	4.16 min	EC50 (human GPR119 (hGPR119); values of the text): 4 nM; CLh ([1]; Mouse microsomal fraction): 84.06; ER ([1]; Mouse microsomal fraction): 0.93; microsomal CLint at 0.5 μM ([1]; liver microsomal fraction): 324 µL/min/mg; half-life at 0.5 μM ([1]; liver microsomal fraction, read-out: t1/2, min): 8.57 min
CCN1C(=O)c2ccccc2S(=O)(=O)c2ccc(C(=O)NCc3ccc(F)cc3)cc21 [C530-0339]	10700 nM	–	–	–	–	–	–	–	–	–	–	–	–
O=S1(=O)COc2cc(-c3ccc(OCC4CCN(c5ncc(Cl)cn5)CC4)nc3)ccc21 [ZB-20]	29.3 nM	< 3 µM	< 3 µM	< 3 µM	0.41	22.53	21.2 µL/min/mg	131 min	0.76	16.57	68 µL/min/mg	40.8 min	Average polarization mP (n = 4) (hERG potassium channels; 1 μM): 261 mP; Unbound hERG % (hERG potassium channels; 1 μM): 89%; Average polarization mP (n = 4) (hERG potassium channels; 10 μM): 263 mP; Unbound hERG % (hERG potassium channels; 10 μM): 91%; EC50 (human GPR119 (hGPR119); values of the text): 29 nM; IC50 (CYP2C19): > 10000 nM; IC50 (CYP2C9): > 10000 nM; IC50 (CYP3A4): > 10000 nM; IC50 (CYP2D6): > 10000 nM; IC50 (CYP1A2): > 10000 nM
CCN1C(=O)c2ccccc2S(=O)(=O)c2ccc(C(=O)NCCc3ccc(Cl)cc3)cc21 [C530-0315]	71.3 nM	–	–	–	–	–	–	–	–	–	–	–	–
N[C@@H](CC(=O)N1CCn2c(nnc2C(F)(F)F)C1)Cc1cc(F)c(F)cc1F [sitagliptin, reference compound]	–	–	–	–	–	–	–	–	–	–	–	–	blood glucose levels [4]: reduction
CC/C(=C(/CC)c1ccc(O)cc1)c1ccc(O)cc1 [Diethylstilbestrol, reference compound]	–	–	–	–	–	–	–	–	–	–	–	–	Solubility (μM) UB, 2% DMSO pH 2 (pH 2): 15 μM; Solubility (μM) UB, 2% DMSO pH 4 (pH 4): 14 μM; Solubility (μM) UB, 2% DMSO pH 7 (pH 7): 14 μM; solubility (physchem; pH 2, aqueous buffer): 12 µM (≈ 3.22 µg/mL); solubility (physchem; pH 4, aqueous buffer): 10 µM (≈ 2.68 µg/mL); solubility (physchem; pH 7, aqueous buffer): 12 µM (≈ 3.22 µg/mL)
O=S1(=O)COc2cc(-c3ccc(OCC4CCN(CC(F)(F)F)CC4)c(F)c3)ccc21 [ZB-18]	63.5 nM	25 µM (≈ 11.5 µg/mL)	< 3 µM	< 3 µM	–	–	–	–	–	–	–	–	–
CC(C)(C)OC(=O)N1CCC(COc2ccc(-c3ccc4c(c3)OCS4(=O)=O)cn2)CC1 [ZB-19]	11 nM	< 3 µM	< 3 µM	< 3 µM	0.81	44.29	126 µL/min/mg	21.9 min	0.95	20.66	1110 µL/min/mg	2.5 min	–
